# According to patent US6683054B1, “Use of melagatran” (AstraZeneca AB, priority 1999, dated 2004):
# Tested on: paw oedema
# Experiment: Carrageenan-induced paw oedema in rats (foot volume by water plethysmograph)
# Format: in vivo, rat
# Settings: for % Inhibition after sub-plantar injection, 2 hours after / % Inhibition after sub-plantar injection, 4 hours after: Table 1; for % Inhibition after sub-plantar injection, 2 hours after: 2 hours after carrageenan; for % Inhibition after sub-plantar injection, 4 hours after: 4 hours after carrageenan
# Description: Groups of five male Charles River CD rats in the weight range 180 to 240 g were used. On their arrival, rats were housed in controlled environment rooms and fed a standard diet for at least one week before use.
# Rats were starved overnight before the test, although water was given ad libitum. A mark was made on the ankle joint of each rat, the day before the test, to indicate where the foot volume was to be measured.
# Compounds were made up in the appropriate vehicle for dosing via either the subcutaneous (s.c.), intravenous (i.v.) or oral (p.o.) routes. Melagatran was dosed in water (20 μmol/kg) when given p.o., and in saline, and in cyclodextrin (40%), when given s.c. (0.7 to 2 μmol/kg). Drugs were administered in a dose volume of 5 mL/kg body weight for p.o. dosing or 1 to 2 mL/kg body weight for s.c. dosing. Control rats received the equivalent volume of vehicle.
# A 1% solution of carrageenan in saline was prepared the day prior to the test. The carrageenan was suspended in saline and stirred vigorously on a magnetic stirrer for one hour. It was then stored at 4° C. until required. Thirty minutes after dosing, each rat was injected s.c. in the plantar region of the left hind foot with 0.1 mL of 1% carrageenan.
# To reduce both discomfort to the rat and variability in the test, rats were housed on wood chip bedding in solid bottom cages. The rats had access to a solution of 5% glucose throughout the duration of the test.
# The plethysmograph was calibrated using blocks of 2 mL and 4 mL mass before the first, and after the last, measurement at each time point.
# Foot volumes were measured before dosing and up to 6 hours after the sub-plantar injection of carrageenan. The increase in foot volume for each rat was calculated using the difference between the individual foot volume at time zero, and at the various time points. The inhibition afforded by a treatment was expressed as a percentage inhibition of the mean absolute increase in foot volume in treated animals compared to control animals. Indomethacin at 10 mg/kg p.o. was always included as an internal standard. If indomethacin gave less than 30% inhibition at 4 h then the test was considered invalid.
# [1] = Table 2, 2 μmol/kg s.c. in cyclodextrin
# [2] = Table 2, 20 μmol/kg p.o. in water
# [3] = Table 3, 2 μmol/kg s.c. in saline
# [4] = Table 4, 0.7 μmol/kg s.c. in saline
# [5] = Table 4, 1.4 μmol/kg s.c. in saline
# [6] = Table 4, 2.0 μmol/kg s.c. in saline
structure (smiles),measurement,setting,value
"COc1ccc2c(c1)c(CC(=O)O)c(C)n2C(=O)c1ccc(Cl)cc1 [Indomethacin, reference compound]","% Inhibition after sub-plantar injection, 2 hours after",10 mg/kg p.o.,43%
same,"% Inhibition after sub-plantar injection, 4 hours after",10 mg/kg p.o.,50%
same,% Inhibition after 1 hour,"Table 2, 10 mg/kg p.o.",−5%
same,% Inhibition after 2 hours,"Table 2, 10 mg/kg p.o.",50%
same,% Inhibition after 3 hours,"Table 2, 10 mg/kg p.o.",39%
same,% Inhibition after 4 hours,"Table 2, 10 mg/kg p.o.",12%
same,% Inhibition after 1 hour,"Table 3, 10 mg/kg p.o.",15%
same,% Inhibition after 2 hours,"Table 3, 10 mg/kg p.o.",2%
same,% Inhibition after 3 hours,"Table 3, 10 mg/kg p.o.",29%
same,% Inhibition after 4 hours,"Table 3, 10 mg/kg p.o.",18%
"C[C@@H]1C[C@H]2[C@@H]3CCC4=CC(=O)C=C[C@]4(C)[C@@]3(F)[C@@H](O)C[C@]2(C)[C@@]1(O)C(=O)CO [Dexamethasone, reference compound]","% Inhibition after sub-plantar injection, 2 hours after",0.03 mg/kg p.o.,47%
same,"% Inhibition after sub-plantar injection, 4 hours after",0.03 mg/kg p.o.,74%
same,"% Inhibition after sub-plantar injection, 2 hours after",0.3 mg/kg p.o.,51%
same,"% Inhibition after sub-plantar injection, 4 hours after",0.3 mg/kg p.o.,96%
"N=C(N)c1ccc(CNC(=O)[C@@H]2CCN2C(=O)[C@H](NCC(=O)O)C2CCCCC2)cc1 [Melagatran, HOOC—CH2—(R)Cgl-Aze-Pab-H]",% Inhibition after 1 hour,[1],29%
same,% Inhibition after 2 hours,[1],13%
same,% Inhibition after 3 hours,[1],3%
same,% Inhibition after 4 hours,[1],13%
same,% Inhibition after 1 hour,[2],14%
same,% Inhibition after 2 hours,[2],17%
same,% Inhibition after 3 hours,[2],−14%
same,% Inhibition after 4 hours,[2],−2%
same,% Inhibition after 1 hour,[3],39%
same,% Inhibition after 2 hours,[3],8%
same,% Inhibition after 3 hours,[3],2%
same,% Inhibition after 4 hours,[3],−8%
same,% Inhibition after 1 hour,[4],39%
same,% Inhibition after 1.5 hours,[4],−1%
same,% Inhibition after 2 hours,[4],9%
same,% Inhibition after 3 hours,[4],16%
same,% Inhibition after 1 hour,[5],65%
same,% Inhibition after 1.5 hours,[5],40%
same,% Inhibition after 2 hours,[5],5%
same,% Inhibition after 3 hours,[5],7%
same,% Inhibition after 1 hour,[6],76%
same,% Inhibition after 1.5 hours,[6],41%
same,% Inhibition after 2 hours,[6],17%
same,% Inhibition after 3 hours,[6],19%
same,inhibition of the oedema,"in saline, 2 μmol/kg s.c., after 1 h",39%
same,"inhibition of paw oedema, dose and time dependence (in words)","in saline, 0.7, 1.4 and 2 μmol/kg s.c., 1 to 3 hours","inhibited paw oedema in both a dose dependent, and time dependent, manner"
same,inhibiting paw oedema (in words),"orally 20 μmol/kg in water, 30 minutes prior to carrageenan, up to 6 h post dosing",ineffective
"CC(C)Cc1ccc(C(C)C(=O)O)cc1 (stereo not shown) [Ibuprofen, reference compound]","% Inhibition after sub-plantar injection, 2 hours after",10 mg/kg p.o.,22%
same,"% Inhibition after sub-plantar injection, 4 hours after",10 mg/kg p.o.,26%
